What all share (assay type): cell-based
For one assay, the system named is Target C. Kind of assay: Gene panel canonical junction qPCR assay, Target C CJ mRNA. The settings on record: Table 9, CJ mRNA decrease, read-out: Target C IC50 (decrease in CJ mRNA levels). How it is done:
(§1) To set up 10 uL RT-qPCR reactions, cell lysates were transferred to 384-well qPCR plates containing the master mix according to the table below. The plates were sealed, gently vortexed, and spun down before the run. The volumes were adjusted accordingly in some instances where the reaction was carried in 20 uL. The table below summarizes the components of the RT-qPCR reactions:
(§2) The RT-qPCR reaction was performed using a QuantStudio (ThermoFisher) under the following fast cycling conditions. All samples and standards were analyzed at least in duplicate. In some instances, bulk room temperature (RT) step of 5-10 minutes was completed for all plates before proceeding with qPCR. The table below summarizes the PCR cycle:
(§3) The data analysis was performed by first determining the ΔCt vs the housekeeper gene. This ΔCt was then normalized against the DMSO control (ΔΔCt) and converted to RQ (relative quantification) using the 2^(−ΔΔCt) equation. The RQ were then converted to a percentage response by arbitrarily setting an assay window of 3.5 ΔCt for HTT-CJ and an assay window of 9 ΔCt for HTT-AJ. […] The percentage response was then fitted to the 4 parametric logistic equation to evaluate the concentration dependence of compound treatment. The increase in AJ mRNA is reported as AC50 (compound concentration having 50% response in AJ increase) while the decrease in CJ mRNA levels is reported as IC50 (compound concentration having 50% response in CJ decrease).
(§4) Additional studies were carried out for a larger panel of genes using the protocol provided above. The junction between flanking upstream and downstream exons was used to design canonical junction qPCR assays. At least one of the forward primer, reverse primer or the CY5-labeled 5′ nuclease probe (with 3′ quencher such as ZEN/Iowa Black FQ) was designed to overlap with the exon junction to capture the CJ mRNA transcript. BLAST was used to confirm the specificity of the probeset and parameters such as melting temperature, GC content, amplicon size, and primer dimer formation are considered during their design. Data for the decrease in CJ mRNA levels for three exemplary genes (HTT, SMN2, and Target C) analyzed in this panel are reported as IC50 (compound concentration having 50% response in CJ decrease).

The test system of assay [1] is HTT. Kind of assay: Splicing assay (RT-qPCR on cell lysates) monitoring HTT splice variants: AJ and CJ mRNA. The settings on record: Table 8, concentration having 50% response. The method in brief:
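Cell lysates were analysed by RT-qPCR, with ΔCt taken against a housekeeping gene and normalised to DMSO to give RQ by 2^(−ΔΔCt). Assay windows were set at 9 ΔCt for AJ and 3.5 ΔCt for CJ, and 4-parameter fits gave AC50 for the AJ increase and IC50 for the CJ decrease.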
For orientation: In qPCR the cycle at which signal appears reflects the starting amount.

Assay [2] relates to HTT. Kind of assay: Gene panel canonical junction qPCR assay, HTT CJ mRNA. The settings on record: Table 9, CJ mRNA decrease, read-out: HTT IC50 (decrease in CJ mRNA levels). How it is done: as §1, §2, §3, §4
The test system of a further assay is SMN2. Nature of the assay: Gene panel canonical junction qPCR assay, SMN2 CJ mRNA. Conditions: Table 9, CJ mRNA decrease, read-out: SMN2 IC50 (decrease in CJ mRNA levels). How it is done: as §1, §2, §3, §4
Where [3] appears, read: decrease in CJ mRNA, read-out: HTT CJ AC50.
The mark [4] stands for this setting: increase in AJ mRNA, read-out: HTT AJ AC50.

Like-named read-outs stand apart in the source and are kept apart here.

Turning to `c1n[nH]cc1-c1ccc(-c2ccc(O[C@@H]3C[C@H]4CCC[C@@H](C3)N4)nn2)c2[nH]ncc12` [Compound 219], the results for the IC50 in the assay with Target C, in the assay with HTT [2] and in the assay with SMN2 were 0.1 to 1 µM, 0.1 to 1 µM and < 0.1 µM, respectively. Moreover, the AC50 in the assay with HTT [1] (setting [3]) and in the assay on HTT [1] (setting [4]) was 0.1 to 1 µM in each case.
In the case of `CC1(C)CC(Oc2ccc(-c3ccc(-c4cn[nH]c4)c4cn[nH]c34)nn2)CCN1` (centres unmarked) [Compound 220], the values for the IC50 in the assay with Target C, in the assay on HTT [2] and in the assay on SMN2 were > 10 µM, 1 to 10 µM and 0.1 to 1 µM, respectively. The concentration at half-maximal activity (AC50) (in general, the midpoint of the concentration-response curve, whichever way the signal moves) in the assay on HTT [1] (setting [3]) is 1 to 10 µM; in the assay on HTT [1] (setting [4]) it was > 10 µM.
Regarding `c1n[nH]cc1-c1ccc(-c2ccc(S[C@@H]3C[C@H]4CC[C@@H](C3)N4)nn2)c2[nH]ncc12` [Compound 221], the IC50 in the assay with Target C, in the assay with HTT [2] and with SMN2 was > 10 µM each time. Further, the half-maximal activity concentration (AC50) in the assay on HTT [1] (setting [3]) and in the assay with HTT [1] (setting [4]) was > 10 µM each time.
Turning to `CN(c1ccc(-c2ccc(-c3cn[nH]c3)c3ncsc23)nn1)C1CCNCC1` [Compound 222, N-methyl-N-(piperidin-4-yl)-6-[4-(1H-pyrazol-4-yl)-1,3-benzothiazol-7-yl]pyridazin-3-amine], the IC50 – broadly, the concentration needed to halve the response being measured – in the assay with Target C fell in the range of 1 to 10 µM; in the assay on HTT [2] it was 1 to 10 µM; with SMN2, 0.1 to 1 µM. Further, the AC50 with HTT [1] (setting [3]) and with HTT [1] (setting [4]) was 1 to 10 µM throughout.
Take `[2H]C([2H])([2H])N(c1ccc(-c2ccc(-c3cn[nH]c3)c3ncsc23)nn1)C1CCNCC1` [Compound 223, N-(D3)methyl-N-(piperidin-4-yl)-6-[4-(1H-pyrazol-4-yl)-1,3-benzothiazol-7-yl] pyridazin-3-amine]: the half-maximal inhibitory concentration (IC50) in the assay with Target C is 1 to 10 µM; with HTT [2] it was 1 to 10 µM; in the assay on SMN2, 0.1 to 1 µM. Moreover, the AC50 with HTT [1] (setting [3]) and with HTT [1] (setting [4]) was 1 to 10 µM each time.
As to `CCN(c1ccc(-c2ccc(-c3cn[nH]c3)c3ncsc23)nn1)C1CCNCC1` [Compound 224, N-ethyl-N-(piperidin-4-yl)-6-[4-(1H-pyrazol-4-yl)-1,3-benzothiazol-7-yl]pyridazin-3-amine], the IC50 in the assay on Target C is > 10 µM; with HTT [2], > 10 µM; with SMN2, 1 to 10 µM. For the same molecule, the AC50 in the assay on HTT [1] (setting [3]) and with HTT [1] (setting [4]) was > 10 µM in each case.
`CCN(c1ccc(-c2ccc(-c3cn[nH]c3)c3ncsc23)nn1)C1CC(C)(C)NC(C)(C)C1` [Compound 225, N-ethyl-6-[4-(1H-pyrazol-4-yl)-1,3-benzothiazol-7-yl]-N-(2,2,6,6-tetramethylpiperidin-4-yl)pyridazin-3-amine]: the IC50 in the assay with Target C was in the range of 1 to 10 µM; in the assay on HTT [2], 1 to 10 µM; in the assay on SMN2, 0.1 to 1 µM. For the same molecule, the concentration at half-maximal activity (AC50) in the assay with HTT [1] (setting [3]) and with HTT [1] (setting [4]) was 1 to 10 µM in each case.
Turning to `CN(c1ccc(-c2ccc(-c3cn[nH]c3)c3ncsc23)nn1)[C@@H]1C[C@H]2CCC[C@@H](C1)N2` [Compound 226], the IC50 in the assay on Target C, in the assay on HTT [2] and in the assay on SMN2 was < 0.1 µM in each case. The half-maximal activity concentration (AC50) in the assay on HTT [1] (setting [3]) and in the assay on HTT [1] (setting [4]) was < 0.1 µM each time.
On to `[2H]C([2H])([2H])N(c1ccc(-c2ccc(-c3cn[nH]c3)c3ncsc23)nn1)[C@@H]1C[C@H]2CCC[C@@H](C1)N2` [Compound 227], for which the IC50 in the assay on Target C, in the assay on HTT [2] and with SMN2 was < 0.1 µM each time. For the same molecule, the concentration at half-maximal activity (AC50) in the assay on HTT [1] (setting [3]) and in the assay on HTT [1] (setting [4]) was < 0.1 µM in each case.
Take `CCN(c1ccc(-c2ccc(-c3cn[nH]c3)c3ncsc23)nn1)[C@@H]1C[C@H]2CCC[C@@H](C1)N2` [Compound 228]: the IC50 in the assay with Target C, in the assay with HTT [2] and with SMN2 was < 0.1 µM in each case. In addition, the AC50 was < 0.1 µM in the assay on HTT [1] (setting [3]) and 0.1 to 1 µM in the assay with HTT [1] (setting [4]).
Turning to `c1n[nH]cc1-c1ccc(-c2ccc(N3CC4(CCNCC4)C3)nn2)c2[nH]ncc12` [Compound 229], the concentration for half-maximal inhibition (IC50) with Target C, in the assay with HTT [2] and with SMN2 was 1 to 10 µM in each case. Besides, the AC50 with HTT [1] (setting [3]) and in the assay with HTT [1] (setting [4]) was 1 to 10 µM each time.
Turning to `c1n[nH]cc1-c1ccc(-c2ccc(OC3CCNCC3)nn2)c2[nH]ncc12` [Compound 230], the half-inhibitory concentration (IC50) with Target C is > 10 µM; in the assay with HTT [2] it was > 10 µM; with SMN2, 1 to 10 µM. In addition, the AC50 in the assay on HTT [1] (setting [3]) and in the assay on HTT [1] (setting [4]) was > 10 µM each time.
Turning to `Cn1cc(-c2ccc(-c3ccc(OC4CC(C)(C)NC(C)(C)C4)nn3)c3[nH]ncc23)cn1` [Compound 232, 4-(1-methylpyrazol-4-yl)-7-{6-[(2,2,6,6-tetramethylpiperidin-4-yl)oxy]pyridazin-3-yl}-1H-indazole], the 50% inhibitory concentration (IC50) fell in the range of 1 to 10 µM with Target C, 1 to 10 µM in the assay on HTT [2] and 0.1 to 1 µM in the assay on SMN2. The AC50 in the assay on HTT [1] (setting [3]) was in the range of 1 to 10 µM; in the assay on HTT [1] (setting [4]), 0.1 to 1 µM.

The record behind these values is patent US20230140983A1, “PYRIDAZINE DERIVATIVES FOR MODULATING NUCLEIC ACID SPLICING” (REMIX THERAPEUTICS INC., priority 2020, published 2023).
